Test results taken from patent US7326725B2, “Fungicidal composition based on at least one pyridylmethylbenzamide derivatives and at least on dithiocarbamate derivative” (Bayer Cropscience S.A., priority 2001, dated 2008).

Tested on: Plasmopara viticola
Assay: Curative test of 24 hours on grapevine infected with Plasmopara viticola
Type: in vivo
Conditions: single compound, curative spray on Chardonay grapevine, assessed after six days at 20° C.
Method: The trials consisted in curative tests of 24 hours on grapevine infected with Plasmopara viticola.
Grapevine (Chardonay variety) plants are grown on sandy soil in plastic pots, with one plant per pot. The plants which are two months old (6- to 7-leaf stage) are inoculated by spraying an aqueous suspension of Plasmopara viticola sporocysts obtained from infected leaves. The concentration of sporocysts is about 100 000 units per ml.
After infection, the inoculated plants are subjected to a curative treatment by spraying with compound (I) alone and compound (II) alone, and with a mixture of compound (I) and compound (II), in each case applied at a dose of 500 l/ha.
After infection and curative treatment, the plants are covered and left for six days at 20° C.
The percentage control of the disease (efficacy: see below) is calculated for each treatment with reference to the untreated plants and the expected results are calculated using the Colby formula (see below).
The difference between the real results and the expected results is used to determine the synergy between the two fungicidal compounds of the composition according to the invention.
The efficacy of the treatment is calculated using the following Abbott formula: […]
Analysis of the results is carried out using the Colby model:
[formula] in which E represents the expected percentage of inhibition of the disease for the combination of the two fungicides at defined doses (for example equal to x and y respectively), x is the percentage of inhibition observed for the disease by the compound (I) at a defined dose (equal to x), y is the percentage of inhibition observed for the disease by the compound (II) at a defined dose (equal to y). When the percentage of inhibition observed for the combination is greater than E, there is a synergistic effect.

O=C(NCc1ncc(C(F)(F)F)cc1Cl)c1c(Cl)cccc1Cl [(Ia), 2,6-dichloro-N-{[3-chloro-5-(trifluoromethyl)-2-pyridinyl]methyl}-benzamide] gave a Percentage efficacy (level 0.1 ppm) of 11.9%, a Percentage efficacy (level 1 ppm) of 58.2% and a Percentage efficacy (level 5 ppm) of 65.7%.
Work on mancozeb yielded a Percentage efficacy (level 1 ppm) of 23.1%, a Percentage efficacy (level 10 ppm) of 5.2% and a Percentage efficacy (level 25 ppm) of 17.2%.
